Source: PubChem BioAssay (NCI)
“And” between values parts separate entries of the source, which are not always exact repeats. Identical values can stand only once.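 Step 1: Grow cells in 96-well plates. Step 2: Expose to compound for 48 hours at 5 concentrations. Step 3: Interpolate endpoints linearly; if unreached, use highest concentration. TGI marks complete inhibition of growth.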

system: COLO 205 colon; test: inhibition of tumour cell growth, NCI panel, 48 h

Row | SMILES | TGI [µM]
1 | Cn1cc(NC(=O)c2cc(NC(=O)CN=C(N)N)cn2C)cc1C(=O)NCCC(=N)N | > 100
2 | CCOC(=O)c1cc(C(O)P2(=O)N(CC(C)(C)C)[C@@H]3CCCC[C@H]3N2CC(C)(C)C)cn1C(=O)OC(C)(C)C (stereo not given in full) | 31.4
3 | COc1cc(/C=C2/C[C@H]3[C@@H]4CC=C5C[C@@H](O)CC[C@]5(C)[C@H]4CC[C@]3(C)NC2=O)cc(OC)c1OC | > 57.9
4 | O=C1C=C(C2=CC(=O)C(=O)c3ccccc32)c2ccccc2C1=O | 38.9
5 | C(=Nc1ccc(-c2nc3ccccc3[nH]2)cc1)c1cccs1 | > 100
6 | C[N+](C)(C)CC1CCCCCCCCCCC1=O (stereo not given) | > 100
7 | Cn1c2c(c3ccccc31)CC1c3c(c4ccccc4n3C)CC21 (stereo not given) | > 100
8 | Cc1ccc(/C=C2\CCCc3ccccc3C2=O)cc1 | 18.9
9 | COCN(CCC1=CCCCC1)C(=O)OC | > 100
10 | NN/C(=N\S(=O)(=O)c1cc2ccccc2s1)Nc1ccc(Cl)cc1 | 33

system: BT-549 breast; test: inhibition of tumour cell growth, NCI panel, 48 h

Row | SMILES | TGI
11 | COc1cc(C(=O)N(Cc2cccnc2)C(=S)N(Cc2cccnc2)C(=O)c2cc(OC)c(OC)c(OC)c2)cc(OC)c1OC | 85.5 µM
12 | COc1cc(CNCc2cc(OC)c(OC)c(OC)c2)cc(OC)c1OC | > 10 µM
13 | CCOC(=O)CNc1c(OCc2ccccc2)c(=O)c1=O | > 100 µM
14 | Oc1c(CN2CCOCC2)ccc2cccnc12 | 8.26 µM
15 | Cc1ccc2c(c1)C(C(=O)N[C@@H]1C(=O)N3[C@@H]1SC(C)(C)[C@@H]3C(=O)O)OCCC2 (stereo not given in full) | > 100 µM
16 | CCOCc1nc2c(OC)cc(-c3nc4ccc(N5CCN(C)CC5)cc4[nH]3)c(OC)c2[nH]1 | > 100 µM
17 | CON(C)C(=O)CNC(=O)OCC1c2ccccc2-c2ccccc21 | > 100 µM
18 | CCOC(=O)C(=Cc1[nH]c2ccccc2c1-c1c[nH]c2ccccc12)C(=O)OCC | 33.1 µM
19 | CSc1ncnc2c1ncn2C1CC(Oc2ccc(C)cc2)C(COc2ccc(C)cc2)O1 (stereo not given) | > 100 µM
20 | Cc1ccc(N=Nc2c(O)ccc3cc(S(=O)(=O)O)cc(S(=O)(=O)O)c23)cc1 | > 100 µM
21 | O=C(O)Cc1cccc2c(=O)c3ccccc3oc12 | > 100 µM
22 | CCOC(=O)N/N=C(/N)c1cccc([N+](=O)[O-])c1 | > 100 µM
23 | COC1=C(OC)C(=O)C(Cc2c(C)nc3sc(C)cn23)=C(C)C1=O | 31.2 µM
24 | CC(=O)OC(/C=C/c1ccccc1)=C(OC(C)C)/C1=C(\c2ccccc2)SCCCSC1=O | > 100 µM
25 | COc1cccc(-c2ccc3c4c2O[C@H]2C(=O)CC[C@@]5(O)[C@@H](C3)N(CC3CC3)CC[C@]425)c1 | 35.1 µM
26 | O=C1/C(=C/c2ccc([N+](=O)[O-])cc2)C(=O)N(c2ccccc2)C1c1ccccc1 (stereo not given) | > 10 µM

Row | SMILES | TGI
27 | NC(N)=NCCC[C@H](N)C(=O)NCC(=O)N[C@@H](CC(=O)O)c1ncc(NC(=O)C(F)(F)F)o1 | > 25 µM
28 | Cc1cc(S(=O)(=O)N=C2N(Cc3ccccc3)CCN2Cc2ccccc2)c(S)cc1Cl | > 100 µM
29 | Oc1ccc(-c2nc(-c3cccnc3)c(-c3ccc(Cl)cc3)[nH]2)cc1 | 29 µM
30 | CSc1ccc2c(cc1=O)[C@@H](NC(=O)c1ccc(N)cc1)CCc1cc(O)c(O)c(O)c1-2 | 38.2 µM and 52.3 µM
31 | CN1CCC(O)(C(C)(C)C)CC1 | > 100 µM
32 | Cn1cc(NC(=O)c2cc(NC(=O)CN=C(N)N)cn2C)cc1C(=O)NCCC(=N)N | > 100 µM
33 | CCOC(=O)c1cc(C(O)P2(=O)N(CC(C)(C)C)[C@@H]3CCCC[C@H]3N2CC(C)(C)C)cn1C(=O)OC(C)(C)C (stereo not given in full) | 31.9 µM
34 | COc1cc(/C=C2/C[C@H]3[C@@H]4CC=C5C[C@@H](O)CC[C@]5(C)[C@H]4CC[C@]3(C)NC2=O)cc(OC)c1OC | 63 µM
35 | O=C1C=C(C2=CC(=O)C(=O)c3ccccc32)c2ccccc2C1=O | > 100 µM
36 | C(=Nc1ccc(-c2nc3ccccc3[nH]2)cc1)c1cccs1 | 86.4 µM
37 | C[N+](C)(C)CC1CCCCCCCCCCC1=O (stereo not given) | > 100 µM
38 | Cn1c2c(c3ccccc31)CC1c3c(c4ccccc4n3C)CC21 (stereo not given) | > 100 µM
39 | Cc1ccc(/C=C2\CCCc3ccccc3C2=O)cc1 | 54.1 µM
40 | COCN(CCC1=CCCCC1)C(=O)OC | > 100 µM
41 | NN/C(=N\S(=O)(=O)c1cc2ccccc2s1)Nc1ccc(Cl)cc1 | 35.6 µM

system: KM12 colon; test: inhibition of tumour cell growth, NCI panel, 48 h

Row | SMILES | TGI [µM]
42 | COc1cc(C(=O)N(Cc2cccnc2)C(=S)N(Cc2cccnc2)C(=O)c2cc(OC)c(OC)c(OC)c2)cc(OC)c1OC | 56.7
43 | COc1cc(CNCc2cc(OC)c(OC)c(OC)c2)cc(OC)c1OC | > 10
44 | CCOC(=O)CNc1c(OCc2ccccc2)c(=O)c1=O | > 100
45 | Oc1c(CN2CCOCC2)ccc2cccnc12 | > 10
46 | Cc1ccc2c(c1)C(C(=O)N[C@@H]1C(=O)N3[C@@H]1SC(C)(C)[C@@H]3C(=O)O)OCCC2 (stereo not given in full) | > 100
47 | CCOCc1nc2c(OC)cc(-c3nc4ccc(N5CCN(C)CC5)cc4[nH]3)c(OC)c2[nH]1 | > 100
48 | CON(C)C(=O)CNC(=O)OCC1c2ccccc2-c2ccccc21 | > 100
49 | CCOC(=O)C(=Cc1[nH]c2ccccc2c1-c1c[nH]c2ccccc12)C(=O)OCC | 18
50 | CSc1ncnc2c1ncn2C1CC(Oc2ccc(C)cc2)C(COc2ccc(C)cc2)O1 (stereo not given) | > 100
51 | Cc1ccc(N=Nc2c(O)ccc3cc(S(=O)(=O)O)cc(S(=O)(=O)O)c23)cc1 | > 100
52 | O=C(O)Cc1cccc2c(=O)c3ccccc3oc12 | > 100
53 | CCOC(=O)N/N=C(/N)c1cccc([N+](=O)[O-])c1 | > 100
54 | COC1=C(OC)C(=O)C(Cc2c(C)nc3sc(C)cn23)=C(C)C1=O | 55.5
55 | CC(=O)OC(/C=C/c1ccccc1)=C(OC(C)C)/C1=C(\c2ccccc2)SCCCSC1=O | > 100
